From PubChem BioAssay (NCI)
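A five-concentration, 48-hour dose response in 96-well plates underlies each endpoint, interpolated linearly between surrounding concentrations. GI50 is the concentration that inhibits growth by half. At the TGI there is no net growth.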

Experiments:
Test in all cases: DTP human tumour cell line panel, 48 h
SF-539 CNS = tested on: SF-539 CNS
SN12C renal = tested on: SN12C renal
RXF 393 renal = tested on: RXF 393 renal
NCI-H460 lung = tested on: NCI-H460 lung
SK-MEL-2 melanoma = tested on: SK-MEL-2 melanoma
MDA-MB-435 = tested on: MDA-MB-435
786-0 renal = tested on: 786-0 renal
SF-295 CNS = tested on: SF-295 CNS
A549 NSCLC = tested on: A549 NSCLC
MCF7 breast = tested on: MCF7 breast
MALME-3M melanoma = tested on: MALME-3M melanoma

Row | SMILES | TGI (SF-539 CNS) [µM] | TGI (SN12C renal) [µM] | TGI (RXF 393 renal) [µM] | TGI (NCI-H460 lung) [µM] | TGI (SK-MEL-2 melanoma) [µM] | TGI (MDA-MB-435) [µM] | TGI (786-0 renal) [µM] | TGI (SF-295 CNS) [µM] | TGI (A549 NSCLC) [µM] | TGI (MCF7 breast) [µM] | TGI (MALME-3M melanoma) [µM] | GI50 (SF-539 CNS) [µM] | GI50 (SK-MEL-2 melanoma) [µM] | GI50 (MCF7 breast) [µM] | GI50 (RXF 393 renal) [µM] | GI50 (MDA-MB-435) [µM] | GI50 (A549 NSCLC) [µM] | GI50 (NCI-H460 lung) [µM] | GI50 (SF-295 CNS) [µM]
1 | Cc1cn(C2C=CC(COP(=O)(OCc3ccc([N+](=O)[O-])o3)N(C)CCCCCl)O2)c(=O)[nH]c1=O (stereo not given) | 12.3 | 23.2 | 11.3 | 23.6 | 12.9 | 4.42 | 23.1 | 30 | 22.8 | 19.6 | 7.36 | – | – | – | – | – | – | – | –
2 | CCCCN(CCCC)CCC(O)c1cc(-c2ccc(C(F)(F)F)cc2)nc(-c2ccc(C(F)(F)F)cc2)c1 (stereo not given) | > 100 | > 100 | – | > 100 | > 100 | > 100 | > 100 | > 100 | – | > 100 | > 100 | – | – | – | – | – | – | – | –
3 | NC1C=NNC1=O (stereo not given) | > 100 | > 100 | > 100 | – | > 100 | – | – | > 100 | > 100 | – | > 100 | – | – | – | – | – | – | – | –
4 | CC(C)=Cc1cc(C)c2c3c(c(O)c(O)c(C)c13)C(C)=CC2=O | 71.6 | > 100 | – | 55.9 | 44.2 | 55.1 | 64.8 | 48.6 | 56 | 68.7 | – | – | – | – | – | – | – | – | –
5 | COc1cc2c(cc1OC)C1c3ccccc3CCN1CCC2 (stereo not given) | > 100 | > 100 | – | – | – | > 100 | > 100 | > 100 | > 100 | > 100 | > 100 | – | – | – | – | – | – | – | –
6 | CC1C2CCC3C(O)C2(CC(O)C2(O)C1CC(O)C2(C)C)CC3(C)O (stereo not given) | > 100 | > 100 | – | > 100 | > 100 | > 100 | > 100 | > 100 | > 100 | > 100 | > 100 | – | – | – | – | – | – | – | –
7 | COc1ccc(C(=O)NC2=C(Cl)C(=O)c3ccccc3C2=O)cc1 | 11.6 | 9.46 | 8.25 | 13.7 | 3.13 | 7.53 | – | 13.8 | > 36.7 | 17.8 | 3.19 | – | – | – | – | – | – | – | –
8 | OC(c1ccc(Cl)cc1)(c1ccc(Cl)cc1)c1cncnc1 | – | 80.3 | 28.4 | 36.4 | 32 | 36.7 | – | 37.2 | – | 47.8 | > 100 | – | – | – | – | – | – | – | –
9 | O=C(Nn1c(-c2cccs2)nc2ccc(I)cc2c1=O)c1ccccc1 | > 100 | > 100 | > 100 | > 100 | 69.4 | 45.7 | > 100 | 91.7 | 45.1 | > 100 | – | 30.1 | 24 | 23.2 | – | – | – | – | –
10 | Nc1c(OCC(=O)O)ccc2cc(S(=O)(=O)O)ccc12 | > 100 | > 100 | > 100 | > 100 | > 100 | > 100 | > 100 | > 100 | > 100 | > 100 | > 100 | – | – | – | – | – | – | – | –
11 | O=NN1C(c2ccccc2)C2CCCC(C2=O)C1c1ccccc1 (stereo not given) | > 100 | 69.9 | 41.8 | 48.3 | 40.5 | – | – | > 84.2 | > 100 | 46.4 | 19.8 | – | – | – | – | – | – | – | –
12 | c1ccc2c(c1)OCCc1cn[nH]c1-2 | > 100 | > 100 | > 100 | > 100 | > 100 | – | – | > 100 | > 100 | > 100 | > 100 | – | – | – | – | – | – | – | –
13 | CN(CCO)Cc1ncccc1O | > 100 | – | > 100 | > 100 | > 100 | > 100 | – | > 100 | > 100 | > 100 | > 100 | – | – | – | – | – | – | – | –
14 | O=C1CCCC/C1=C1/SC(=Nc2ccccc2)C(=Nc2ccccc2)N1c1ccccc1 | – | > 100 | 40 | > 100 | > 100 | – | – | > 100 | – | > 100 | > 100 | – | – | – | – | – | – | – | –
15 | CCc1c2cc(OC)c(OC)cc2cc2c3cc(OC)c(OC)cc3cc[n+]12 (tested in a mixture with another compound) | > 94.9 | > 79.9 | > 100 | > 76 | 87.1 | 25.5 | > 73 | > 86.7 | > 96.6 | > 91.6 | 44.2 | – | – | – | – | – | – | – | –
16 | O=C(O)C1OC1C(=O)O (stereo not given) | – | > 100 | > 100 | > 100 | > 100 | > 100 | > 100 | > 100 | > 100 | > 100 | > 100 | – | – | – | – | – | – | – | –
17 | CN1CC(c2ccccc2)C(O)(C2(c3ccccc3)CN(C)CC(c3ccccc3)C2=O)C(c2ccccc2)C1 (stereo not given) | > 100 | > 100 | – | > 100 | > 100 | > 100 | > 100 | > 100 | > 100 | > 100 | – | – | – | – | – | – | – | – | –
18 | CC[C@@]1(OC(=O)CN(C)C)C(=O)OCc2c1cc1n(c2=O)Cc2cc3c(N)cccc3nc2-1 | – | – | 0.576 | – | > 100 | 0.259 | – | – | 1.37 | > 100 | – | – | 1.24 | 0.0115 | 0.144 | 0.078 | 0.0575 | – | –
19 | C[C@]12Cc3cnc(-c4ccccc4)nc3C[C@@H]1CC[C@@H]1[C@@H]2CC[C@@]2(C)[C@H]1CC[C@]2(C)O | 9.55 | 57.3 | 12.3 | 39.4 | 58.3 | > 70.4 | 27.5 | 52.4 | 57.6 | 76.5 | 43.5 | – | – | – | – | – | – | – | –
20 | CCC1C(C#N)=C(O)NC(O)=C1C#N | > 100 | > 100 | > 100 | > 100 | > 100 | – | – | > 100 | > 100 | – | > 100 | – | – | – | – | – | – | – | –
21 | O=C(O)C(O)(c1ccc(-c2ccccc2)cc1)c1ccc(-c2ccccc2)cc1 | – | 60.7 | 51.6 | 45.9 | 30.6 | 43.7 | 80.4 | 68.8 | > 100 | – | 60.4 | – | – | – | – | – | – | – | –
22 | Clc1cc2ccccc2c2ccccc12 | > 100 | > 100 | > 100 | > 100 | 73.3 | > 100 | > 100 | > 100 | > 100 | > 100 | > 100 | – | – | – | – | – | – | – | –
23 | COc1ccc(NC(=S)NNC(=O)c2nsc3ccccc23)cc1 | 75.8 | > 100 | 72.9 | > 100 | 90.8 | – | – | – | > 100 | – | – | – | – | – | – | – | – | – | –
24 | Clc1ccc(C2CC(c3cccc(Nc4ccncc4)c3)=NN2c2ccc(Cl)cc2)cc1 (stereo not given) | 3.03 | – | 2.94 | 3.61 | – | 3.24 | – | 2.96 | – | – | – | 1.64 | – | – | 1.54 | 1.71 | – | 1.86 | 1.58
